Test results from patent US10941169B2, “Crystal of cyclic phosphonic acid sodium salt and method for manufacturing same” (OTSUKA CHEMICAL CO., LTD., priority 2014, dated 2021).
Counter-ions that a name gives are not always drawn.

What was measured:
[1] = Storage stability, hermetically sealed, −20° C. and 35° C. for 3 months; assay type: physicochemical; settings: stored at −20° C. and 35° C. for 3 months
Excerpt: The crystal of 2ccPA of the present invention is excellent in storage stability.

[2] = Stability test at 35° C. (storage, weekly LC purity analysis); assay type: physicochemical; settings: stored at 35° C.; for purity in stability test, number of days 0: day 0; for purity in stability test, number of days 7: day 7; for purity in stability test, number of days 14: day 14; for purity in stability test, number of days 21: day 21; for purity in stability test, number of days 28: day 28; for purity in stability test, number of days 56: day 56; for stability (assessment in words): results of Table 1
Procedure: As the amorphous of 2ccPA above, 300 mg of 2ccPA (obtained in Example 3) dissolved in 5 mL of water and freeze-dried was used.
In the stability test, about 15 mg each of the 2ccPA crystal of the present invention, the 2ccPA of a formula described in documents, and an amorphous of 2ccPA were weighed, and individually diluted with 5 mL of acetonitrile/water (1/1). Then, 5 μL each of the diluted solutions was analyzed weekly using the LC-2010CHT (Shimazu Corporation).

[3] = listed as 2ccPA crystal obtained by the production method of the present invention, sodium salt

| Compound | storage stability (decrease in purity, decomposition) [1] | purity in stability test, number of days 0 ([2]; sodium salt) | purity in stability test, number of days 7 ([2]; sodium salt) | purity in stability test, number of days 14 ([2]; sodium salt) | purity in stability test, number of days 21 ([2]; sodium salt) | purity in stability test, number of days 28 ([2]; sodium salt) | purity in stability test, number of days 42 ([2]; day 42) | purity in stability test, number of days 56 [2, 3] | purity in stability test, number of days 56 ([2]; sodium salt) | stability (assessment in words) [2, 3] | purity in stability test, number of days 0 [2] | purity in stability test, number of days 7 [2] | purity in stability test, number of days 14 [2] | purity in stability test, number of days 21 [2] | purity in stability test, number of days 28 [2] | stability (assessment in words) [2] |
| --- | --- | --- | --- | --- | --- | --- | --- | --- | --- | --- | --- | --- | --- | --- | --- | --- |
| CCCCCCCC/C=C\CCCCCCCC(=O)OCC1COP(=O)([O-])C1.[Na+] (stereo not shown) [2ccPA crystal of the present invention, 4-[(Z)-octadec-9-enoyloxymethyl]-2-oxo-1,2-λ^5-oxaphosphorane-2-olate sodium salt] | little decrease in purity | 99.561% | 99.605% | 99.576% | 99.631% | 99.626% | 99.593% | 99.493% | 99.493% | excellent stability |  |  |  |  |  |  |
| CCCCCCCC/C=C\CCCCCCCC(=O)OCC1COP(=O)(O)C1 (stereo not shown) [A formula described in documents, sodium salt of 9-octadecenoic acid (9Z)-(2-hydroxy-2-oxo-2λ^5-1,2-oxaphosphoran-4-yl)methyl ester] |  |  |  |  |  |  |  |  |  |  | 67.934% | 66.665% | 67.517% | 62.77% | 59.841% | unstable |
| CCCCCCCC/C=C\CCCCCCCC(=O)OCC1COP(=O)([O-])C1.[Na+] (stereo not shown) [Amorphous of 2ccPA, sodium salt of 9-octadecenoic acid (9Z)-(2-hydroxy-2-oxo-2λ^5-1,2-oxaphosphoran-4-yl)methyl ester] |  |  |  |  |  |  |  |  |  |  | 99.599% | 83.363% | 45.02% | 34.738% | 27.077% | unsatisfactory |
